Assay [1] deals with T1, AgrC-I (Staphylococcus aureus, UniProt O07911). The assay is classed as cell-based, S. aureus. Conditions: read-out: AgrC-I IC50.
The target of assay [2] is T2, AgrC-II (Staphylococcus aureus, UniProt O33587). The assay is classed as cell-based, S. aureus. As to conditions: for IC50: read-out: AgrC-II IC50, fluorescence reporter strain.
For assay [3], the target named is T3, AgrC-IV (Staphylococcus aureus, UniProt Q309Z2). Format: cell-based, S. aureus. As to conditions: read-out: AgrC-IV IC50, fluorescence reporter strain.
The target of assay [4] is T4, AgrC-III (Staphylococcus aureus, UniProt O33590). Conditions: read-out: AgrC-III EC50; β-lactamase reporter strain; 2.5 pM − 10 μM.
The target in assay [5] is T4, AgrC-III. The assay is described as follows: Hemolysis assay, wild-type group-III strain MN8, rabbit red blood cells.
The target in assay [6] is T3, AgrC-IV. The assay can be described thus: Hemolysis assay, wild-type group-IV strain RN4850, rabbit red blood cells. As to conditions: read-out: AgrC-IV IC50, hemolysis assay, 200 fM − 10 μM.
In assay [7] the target is T2, AgrC-II. The assay is described as follows: Hemolysis assay, wild-type group-II strain RN6923, rabbit red blood cells. As to conditions: read-out: AgrC-II IC50, hemolysis assay, 200 fM − 10 μM.
For assay [8], the target named is T4, AgrC-III. Format: cell-based, S. aureus. As to conditions: for IC50: read-out: AgrC-III IC50, fluorescence reporter strain.
Assay [9] deals with T1, AgrC-I. The assay is described as follows: Hemolysis assay, wild-type group-I strain RN6390B, rabbit red blood cells. Conditions: for IC50: read-out: AgrC-I IC50, hemolysis assay, 200 fM − 10 μM.
[10] abbreviates: fluorescence reporter strain, AIPs tested over 200 fM − 10 μM or (b1) 2.5 pM − 10 μM, triplicate.
[11] abbreviates: AIPs tested over 200 fM − 10 μM or (b1) 2.5 pM − 10 μM, triplicate.
The mark [12] stands for this setting: read-out: AgrC-III IC50, 200 fM − 10 μM.
[13] abbreviates: read-out: AgrC-III IC50, selected second-generation analogues, 200 fM − 10 μM.
Setting [14] is: selected second-generation analogues.
Where [15] appears, read: second-generation analogues, 200 fM − 10 μM.
Where [16] appears, read: second-generation analogues, fluorescence reporter strain, 200 fM − 10 μM.

Where two headings read alike, the source gives them in different places. Positions of bridges follow the written chain, without caps; N, C: chain ends. Non-standard residues stand in square brackets, D forms with d. Residues, ends and D or L forms follow the SMILES beside them. NMeF = CN[C@@H](Cc1ccccc1)C(=O)O; NMeN = CN[C@@H](CC(N)=O)C(=O)O; NMeC = CN[C@@H](CS)C(=O)O

The values below come from patent publication US20200140489A1 (priority 2013, published 2020).

A word on the EC50: it is the concentration needed to bring the measured effect to its halfway point.

T1 sequence (O07911 1-430): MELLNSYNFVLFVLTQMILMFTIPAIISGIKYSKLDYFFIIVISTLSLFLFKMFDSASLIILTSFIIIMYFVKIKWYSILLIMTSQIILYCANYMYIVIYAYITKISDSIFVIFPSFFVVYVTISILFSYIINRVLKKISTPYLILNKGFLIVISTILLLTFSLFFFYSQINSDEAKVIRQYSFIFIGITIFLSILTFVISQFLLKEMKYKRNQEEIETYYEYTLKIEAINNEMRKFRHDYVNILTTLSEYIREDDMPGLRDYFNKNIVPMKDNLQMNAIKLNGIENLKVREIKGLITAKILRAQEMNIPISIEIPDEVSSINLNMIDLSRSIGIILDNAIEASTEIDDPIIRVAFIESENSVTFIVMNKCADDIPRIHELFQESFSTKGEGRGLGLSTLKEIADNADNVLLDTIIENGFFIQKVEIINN
T3 sequence (Q309Z2 1-430): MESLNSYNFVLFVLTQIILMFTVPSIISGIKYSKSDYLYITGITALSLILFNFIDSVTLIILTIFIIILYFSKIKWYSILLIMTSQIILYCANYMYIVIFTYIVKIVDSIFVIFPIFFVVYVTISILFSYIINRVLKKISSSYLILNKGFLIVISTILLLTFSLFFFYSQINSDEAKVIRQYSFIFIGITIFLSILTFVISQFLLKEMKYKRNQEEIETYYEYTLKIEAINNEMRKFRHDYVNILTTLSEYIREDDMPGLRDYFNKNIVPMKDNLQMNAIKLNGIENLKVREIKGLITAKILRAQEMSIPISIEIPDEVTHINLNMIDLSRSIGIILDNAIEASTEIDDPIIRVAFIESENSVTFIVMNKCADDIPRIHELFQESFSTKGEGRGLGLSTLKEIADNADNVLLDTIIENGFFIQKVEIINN
T2 sequence (O33587 1-437): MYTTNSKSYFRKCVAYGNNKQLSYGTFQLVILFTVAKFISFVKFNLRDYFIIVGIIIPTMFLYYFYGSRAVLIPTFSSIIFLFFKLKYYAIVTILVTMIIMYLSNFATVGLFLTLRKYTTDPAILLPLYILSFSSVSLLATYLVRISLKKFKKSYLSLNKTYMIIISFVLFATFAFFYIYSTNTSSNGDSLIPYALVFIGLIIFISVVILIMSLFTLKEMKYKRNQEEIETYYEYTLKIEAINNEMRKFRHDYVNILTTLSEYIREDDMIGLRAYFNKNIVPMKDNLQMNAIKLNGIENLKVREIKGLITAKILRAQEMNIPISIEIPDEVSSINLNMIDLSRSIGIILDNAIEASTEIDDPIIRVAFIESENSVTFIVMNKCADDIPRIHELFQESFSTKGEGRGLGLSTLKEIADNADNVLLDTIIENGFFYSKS
T4 sequence (O33590 1-425): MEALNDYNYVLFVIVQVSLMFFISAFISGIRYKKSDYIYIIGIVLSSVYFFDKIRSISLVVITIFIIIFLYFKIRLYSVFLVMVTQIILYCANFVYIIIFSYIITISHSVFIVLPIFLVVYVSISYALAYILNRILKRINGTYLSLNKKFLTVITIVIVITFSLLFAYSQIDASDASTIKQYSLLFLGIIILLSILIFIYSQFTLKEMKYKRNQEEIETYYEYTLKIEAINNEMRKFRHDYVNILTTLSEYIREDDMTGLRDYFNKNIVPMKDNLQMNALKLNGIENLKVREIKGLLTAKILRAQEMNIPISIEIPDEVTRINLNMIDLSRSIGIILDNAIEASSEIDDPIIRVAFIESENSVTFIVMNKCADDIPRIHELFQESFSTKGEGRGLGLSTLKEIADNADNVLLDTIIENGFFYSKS

For the compound `CC[C@H](C)[C@H](N)C(=O)N[C@@H](CC(N)=O)C(=O)N[C@H]1CSC(=O)[C@H](CC(C)C)NC(=O)[C@H](CC(C)C)NC(=O)[C@H](Cc2ccccc2)N(C)C(=O)[C@H](CC(=O)O)NC1=O` [AIP-III N-Me-F5, I-N-(C-D-NMeF-L-L)] (H-INCD[NMeF]LL; thioester 3-C), the IC50 on AgrC-I [1] (setting [10]) was determined as 4.49 nM; at AgrC-II [2] (setting [11]) it was 1.95 nM; at AgrC-IV [3] (setting [11]), 6.59 nM. In addition, the EC50 at AgrC-III [4] stood at 49.6 nM.

Turning to `CC[C@H](C)[C@@H]1NC(=O)[C@H](Cc2ccccc2)NC(=O)[C@H](CC(=O)O)NC(=O)[C@@H](NC(=O)[C@@H](NC(=O)[C@H](CO)NC(=O)[C@@H](N)Cc2ccc(O)cc2)[C@@H](C)O)CSC(=O)[C@H](CCSC)NC1=O` [AIP-I, Y-S-T-(C-D-F-I-M), reference compound] (H-YSTCDFIM; thioester 4-C), the IC50 on AgrC-III [5] (setting [12]) was found to be 6.12 nM; at AgrC-II [2] (setting [11]), 8 nM; at AgrC-IV [6], 189 nM; on AgrC-II [7], 3.34 nM; on AgrC-III [8] (setting [11]), 0.522 nM.

For `CC[C@H](C)[C@@H]1NC(=O)[C@H](Cc2ccccc2)NC(=O)[C@H](C)NC(=O)[C@@H](NC(C)=O)CSC(=O)[C@H](CCSC)NC1=O` [tAIP-I D2A, Ac-(C-A-F-I-M), reference compound] (Ac-CAFIM; thioester 1-C), the IC50 on AgrC-III [5] (setting [12]) was 0.853 nM; at AgrC-I [9] it was 1.45 nM; on AgrC-IV [6] it was 0.361 nM; on AgrC-II [7] it was 2.5 nM.

Turning to `CC[C@H](C)[C@H](N)C(=O)N[C@@H](CC(N)=O)C(=O)N(C)[C@H]1CSC(=O)[C@H](CC(C)C)NC(=O)[C@H](CC(C)C)NC(=O)[C@H](Cc2ccccc2)NC(=O)[C@H](CC(=O)O)NC1=O` [AIP-III N-Me-C3, I-N-(NMeC-D-F-L-L)] (H-IN[NMeC]DFLL; thioester 3-C), the IC50 at AgrC-I [1] (setting [10]) was determined as 137 nM; on AgrC-II [2] (setting [11]) it was 134 nM; at AgrC-IV [3] (setting [11]) it was 106 nM. For the same compound, the EC50 on AgrC-III [4] is above 1000 nM.

In the case of `CC(=O)N[C@H]1CSC(=O)[C@H](CC(C)C)NC(=O)[C@H](CC(C)C)NC(=O)[C@H](Cc2ccc(O)cc2)NC(=O)[C@H](C)NC1=O` [tAIP-III D2A/F3Y, Ac-(C-A-Y-L-L)] (Ac-CAYLL; thioester 1-C), the IC50 amounted to 0.279 nM at AgrC-I [1]; 0.265 nM on AgrC-III [5] (setting [13]); 0.279 nM on AgrC-I [9] (setting [14]); 1.15 nM on AgrC-II [2] (setting [15]); 0.134 nM at AgrC-IV [6] (setting [14]); 0.0306 nM at AgrC-IV [3] (setting [15]). Also, the IC50 on AgrC-II [7] (setting [14]) came to 0.204 nM; on AgrC-III [8] (setting [15]) it was 0.387 nM.

Consider `CC(C)C[C@@H]1NC(=O)[C@H](CO)NC(=O)[C@H](CO)NC(=O)[C@@H](NC(=O)[C@H](C)NC(=O)[C@H](CC(N)=O)NC(=O)[C@@H](NC(=O)CN)C(C)C)CSC(=O)[C@H](Cc2ccccc2)NC1=O` [AIP-II, G-V-N-A-(C-S-S-L-F), reference compound] (H-GVNACSSLF; thioester 5-C), for which the IC50 turned out to be 1.62 nM at AgrC-I [1]; 3.59 nM at AgrC-III [5] (setting [12]); 0.89 nM at AgrC-I [9]; 1.19 nM on AgrC-IV [6]; 0.396 nM at AgrC-IV [3] (setting [11]); 0.532 nM on AgrC-III [8] (setting [11]).

For the compound `CC(C)C[C@@H]1NC(=O)[C@H](Cc2ccccc2)NC(=O)[C@H](C)NC(=O)[C@@H](NC(=O)[C@H](C)NC(=O)[C@H](C)N)CSC(=O)[C@H](CC(C)C)NC1=O` [AIP-III I1A/N2A/D4A, A-A-(C-A-F-L-L)] (H-AACAFLL; thioester 3-C), the IC50 was found to be 0.304 nM on AgrC-I [1] (setting [16]); 0.243 nM on AgrC-III [5] (setting [13]); 0.0411 nM at AgrC-I [9] (setting [14]); 0.604 nM on AgrC-II [2] (setting [15]); 0.14 nM at AgrC-IV [6] (setting [14]); 0.0161 nM on AgrC-IV [3] (setting [15]). The IC50 at AgrC-II [7] (setting [14]) came to 0.0606 nM; at AgrC-III [8] (setting [15]), 0.0734 nM.

For `CC(C)C[C@@H]1NC(=O)[C@H](Cc2ccccc2)NC(=O)[C@H](C)NC(=O)[C@@H](NC(=O)[C@H](CC(N)=O)NC(=O)[C@H](C)N)CSC(=O)[C@H](CC(C)C)NC1=O` [AIP-III I1A/D4A, A-N-(C-A-F-L-L)] (H-ANCAFLL; thioester 3-C), the IC50 stood at 0.328 nM on AgrC-I [1] (setting [16]); 0.551 nM on AgrC-III [5] (setting [13]); 0.0103 nM at AgrC-I [9] (setting [14]); 2.35 nM at AgrC-II [2] (setting [15]); 0.284 nM at AgrC-IV [6] (setting [14]); 0.101 nM on AgrC-IV [3] (setting [15]). The IC50 at AgrC-II [7] (setting [14]) worked out at 0.793 nM; on AgrC-III [8] (setting [15]), 0.28 nM. The “fold lower concentrations inhibiting hemolysis than AIP-III D4A” value at AgrC-I [9] (group-I) was “eight”. The “fold change against AgrC-II relative to AIP-III D4A” value on AgrC-II [2] (gfp reporter) is recorded as below 5 fold.

For the compound `CC(C)C[C@@H]1NC(=O)[C@H](Cc2ccccc2)NC(=O)[C@H](CC(=O)O)NC(=O)[C@@H](NC(=O)[C@H](CC(N)=O)NC(=O)[C@H](C)N)CSC(=O)[C@H](CC(C)C)NC1=O` [AIP-III I1A, A-N-(C-D-F-L-L)] (H-ANCDFLL; thioester 3-C), the IC50 at AgrC-I [1] (setting [10]) was 17.9 nM; on AgrC-I [9], 4.61 nM; on AgrC-II [2] (setting [11]) it was 4.26 nM; at AgrC-IV [6], 12.5 nM; on AgrC-IV [3] (setting [11]), 7.85 nM; at AgrC-II [7] it was 1.29 nM. At AgrC-III [8] (setting [11]), the IC50 amounted to 194 nM.

For `CC(=O)N[C@H]1CSC(=O)[C@H](CC(C)C)NC(=O)[C@H](CC(C)C)NC(=O)[C@H](Cc2c[nH]c3ccccc23)NC(=O)[C@H](C)NC1=O` [Ac-(C-A-W-L-L)] (Ac-CAWLL; thioester 1-C), the IC50 came out at 0.909 nM at AgrC-I [1] (setting [16]); 1.08 nM at AgrC-III [5] (setting [13]); 0.468 nM on AgrC-I [9] (setting [14]); 1.9 nM on AgrC-II [2] (setting [15]); 0.194 nM at AgrC-IV [6] (setting [14]); 0.0363 nM on AgrC-IV [3] (setting [15]). Further, the IC50 came to 0.126 nM at AgrC-II [7] (setting [14]) and 0.509 nM on AgrC-III [8] (setting [15]).

As to `CC[C@H](C)[C@H](N)C(=O)N(C)[C@@H](CC(N)=O)C(=O)N[C@H]1CSC(=O)[C@H](CC(C)C)NC(=O)[C@H](CC(C)C)NC(=O)[C@H](Cc2ccccc2)NC(=O)[C@H](CC(=O)O)NC1=O` [AIP-III N-Me-N2, I-NMeN-(C-D-F-L-L)] (H-I[NMeN]CDFLL; thioester 3-C), the IC50 was 8.04 nM on AgrC-I [1] (setting [10]), 3.19 nM on AgrC-II [2] (setting [11]) and 9.54 nM on AgrC-IV [3] (setting [11]). Also, the EC50 on AgrC-III [4] stood at 19 nM.

As to `CC[C@H](C)[C@@H]1NC(=O)[C@H](Cc2ccccc2)NC(=O)[C@H](Cc2ccc(O)cc2)NC(=O)[C@@H](NC(=O)[C@@H](NC(=O)[C@H](CO)NC(=O)[C@@H](N)Cc2ccc(O)cc2)[C@@H](C)O)CSC(=O)[C@H](CCSC)NC1=O` [AIP-IV, Y-S-T-(C-Y-F-I-M), reference compound] (H-YSTCYFIM; thioester 4-C), the IC50 amounted to 1.49 nM on AgrC-III [5] (setting [12]), 0.373 nM on AgrC-II [2] (setting [11]), 0.0897 nM at AgrC-II [7] and 0.46 nM at AgrC-III [8] (setting [11]).

For `CC[C@H](C)[C@H](N)C(=O)N[C@@H](C)C(=O)N[C@H]1CSC(=O)[C@H](CC(C)C)NC(=O)[C@H](CC(C)C)NC(=O)[C@H](Cc2ccccc2)NC(=O)[C@H](CC(=O)O)NC1=O` [AIP-III N2A, I-A-(C-D-F-L-L)] (H-IACDFLL; thioester 3-C), the IC50 was found to be 3.6 nM at AgrC-I [1] (setting [10]); 1.02 nM on AgrC-I [9]; 0.732 nM on AgrC-II [2] (setting [11]); 2.64 nM at AgrC-IV [6]; 3.53 nM at AgrC-IV [3] (setting [11]); 0.137 nM at AgrC-II [7]. In addition, the “AgrC-III activity” value at AgrC-III [8] (gfp/fluorescence assay) was “weak agonist”.

`CC[C@H](C)[C@H](N)C(=O)N[C@@H](C)C(=O)N[C@H]1CSC(=O)[C@H](CC(C)C)NC(=O)[C@H](CC(C)C)NC(=O)[C@H](Cc2ccccc2)NC(=O)[C@H](C)NC1=O` [AIP-III N2A/D4A, I-A-(C-A-F-L-L)] (H-IACAFLL; thioester 3-C): the IC50 on AgrC-I [1] (setting [16]) worked out at 0.331 nM; on AgrC-III [5] (setting [13]), 0.216 nM; at AgrC-I [9] (setting [14]), 0.0362 nM; at AgrC-II [2] (setting [15]), 0.204 nM; on AgrC-IV [6] (setting [14]), 0.122 nM; on AgrC-IV [3] (setting [15]), 0.0221 nM. For the same compound, the IC50 stood at 0.0661 nM at AgrC-II [7] (setting [14]) and 0.0657 nM on AgrC-III [8] (setting [15]).
